According to ChEMBL document CHEMBL3734753, “Phenyl Ether- and Aniline-Containing 2-Aminoquinolines as Potent and Selective Inhibitors of Neuronal Nitric Oxide Synthase” (J Med Chem, 2015):

How the values were obtained:
Nitric oxide synthase 1 [1] = target: Nitric oxide synthase 1 (Rattus norvegicus, UniProt P29476); assay: Inhibition of wild type recombinant rat nNOS expressed in Escherichia coli assessed as nitric oxide production by hemoglobin capture assay
[2] = target: T1, Nitric oxide synthase, inducible (Mus musculus, UniProt P29477)
T1 sequence (P29477 whole entry): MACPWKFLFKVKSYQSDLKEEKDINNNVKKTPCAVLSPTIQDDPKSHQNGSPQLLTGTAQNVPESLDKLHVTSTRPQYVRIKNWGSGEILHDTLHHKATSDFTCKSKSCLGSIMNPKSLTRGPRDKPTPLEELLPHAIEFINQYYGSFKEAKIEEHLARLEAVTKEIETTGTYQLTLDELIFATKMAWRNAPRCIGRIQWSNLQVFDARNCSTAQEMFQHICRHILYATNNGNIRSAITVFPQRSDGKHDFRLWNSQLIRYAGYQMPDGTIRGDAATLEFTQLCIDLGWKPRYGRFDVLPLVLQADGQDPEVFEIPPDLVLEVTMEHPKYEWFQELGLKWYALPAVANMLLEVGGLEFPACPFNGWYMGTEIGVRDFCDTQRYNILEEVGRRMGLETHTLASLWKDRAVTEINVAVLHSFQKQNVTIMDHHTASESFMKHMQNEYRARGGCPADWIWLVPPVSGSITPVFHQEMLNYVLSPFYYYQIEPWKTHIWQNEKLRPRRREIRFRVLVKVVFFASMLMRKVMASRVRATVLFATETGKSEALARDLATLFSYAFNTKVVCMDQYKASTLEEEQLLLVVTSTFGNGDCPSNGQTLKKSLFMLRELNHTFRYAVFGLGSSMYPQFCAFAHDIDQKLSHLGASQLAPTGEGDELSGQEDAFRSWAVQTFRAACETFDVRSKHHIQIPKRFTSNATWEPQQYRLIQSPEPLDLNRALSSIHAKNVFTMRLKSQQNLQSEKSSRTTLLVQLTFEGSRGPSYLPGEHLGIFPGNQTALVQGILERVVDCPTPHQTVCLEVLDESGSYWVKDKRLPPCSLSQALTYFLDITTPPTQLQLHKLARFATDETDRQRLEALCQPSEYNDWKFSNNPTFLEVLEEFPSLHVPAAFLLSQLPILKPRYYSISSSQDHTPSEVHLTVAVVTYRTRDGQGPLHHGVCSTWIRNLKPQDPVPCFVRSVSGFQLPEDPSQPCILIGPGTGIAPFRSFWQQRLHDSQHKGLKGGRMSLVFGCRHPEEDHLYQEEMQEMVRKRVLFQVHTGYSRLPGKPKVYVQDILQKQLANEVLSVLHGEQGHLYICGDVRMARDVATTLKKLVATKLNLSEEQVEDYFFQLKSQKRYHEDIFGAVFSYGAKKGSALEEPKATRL

[3] = Selectivity ratio of Ki for wild type recombinant rat nNOS to Ki for bovine eNOS
Nitric oxide synthase 3 = target: T2, Nitric oxide synthase 3 (Bos taurus, UniProt P29473); assay: Inhibition of recombinant bovine eNOS expressed in Escherichia coli assessed as nitric oxide production by hemoglobin capture assay
T2 sequence (P29473 whole entry): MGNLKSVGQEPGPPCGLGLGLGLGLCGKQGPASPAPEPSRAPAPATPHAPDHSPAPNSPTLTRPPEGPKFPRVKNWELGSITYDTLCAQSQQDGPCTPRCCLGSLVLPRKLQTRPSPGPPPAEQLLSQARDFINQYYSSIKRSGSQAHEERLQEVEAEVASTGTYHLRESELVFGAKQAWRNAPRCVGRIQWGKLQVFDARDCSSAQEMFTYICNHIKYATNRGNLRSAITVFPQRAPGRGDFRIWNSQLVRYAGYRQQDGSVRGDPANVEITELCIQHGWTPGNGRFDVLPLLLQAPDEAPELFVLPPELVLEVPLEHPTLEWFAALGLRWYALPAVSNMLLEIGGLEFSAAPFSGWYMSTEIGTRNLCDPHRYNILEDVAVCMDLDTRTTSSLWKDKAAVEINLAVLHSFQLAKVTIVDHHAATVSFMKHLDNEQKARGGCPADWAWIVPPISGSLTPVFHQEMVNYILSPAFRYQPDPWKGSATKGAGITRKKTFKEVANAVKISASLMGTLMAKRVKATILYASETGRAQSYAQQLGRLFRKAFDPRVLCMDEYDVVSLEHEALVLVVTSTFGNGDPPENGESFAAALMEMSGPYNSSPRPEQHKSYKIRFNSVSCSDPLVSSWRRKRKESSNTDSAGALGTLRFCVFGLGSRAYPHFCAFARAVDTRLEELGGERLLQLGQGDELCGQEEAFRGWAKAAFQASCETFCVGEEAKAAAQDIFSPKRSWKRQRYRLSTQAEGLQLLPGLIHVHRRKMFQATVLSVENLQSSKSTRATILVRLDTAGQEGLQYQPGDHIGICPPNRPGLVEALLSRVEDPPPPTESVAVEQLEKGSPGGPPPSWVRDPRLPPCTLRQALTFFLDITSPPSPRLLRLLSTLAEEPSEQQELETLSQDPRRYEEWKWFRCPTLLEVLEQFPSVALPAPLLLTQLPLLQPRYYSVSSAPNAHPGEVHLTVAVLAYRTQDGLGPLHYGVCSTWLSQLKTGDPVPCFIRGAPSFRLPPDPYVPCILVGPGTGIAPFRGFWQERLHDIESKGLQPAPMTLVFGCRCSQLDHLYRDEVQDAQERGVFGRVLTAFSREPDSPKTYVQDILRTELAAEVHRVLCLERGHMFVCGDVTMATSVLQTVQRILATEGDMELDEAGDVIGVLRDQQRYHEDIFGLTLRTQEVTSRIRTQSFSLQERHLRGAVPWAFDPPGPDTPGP

[4] = Selectivity ratio of Ki for wild type recombinant rat nNOS to Ki for human nNOS
Nitric oxide synthase 1 [5] = target: Nitric oxide synthase 1 (Homo sapiens, UniProt P29475)
Sequence of Nitric oxide synthase 1 (Homo sapiens, UniProt P29475) (P29475 whole entry): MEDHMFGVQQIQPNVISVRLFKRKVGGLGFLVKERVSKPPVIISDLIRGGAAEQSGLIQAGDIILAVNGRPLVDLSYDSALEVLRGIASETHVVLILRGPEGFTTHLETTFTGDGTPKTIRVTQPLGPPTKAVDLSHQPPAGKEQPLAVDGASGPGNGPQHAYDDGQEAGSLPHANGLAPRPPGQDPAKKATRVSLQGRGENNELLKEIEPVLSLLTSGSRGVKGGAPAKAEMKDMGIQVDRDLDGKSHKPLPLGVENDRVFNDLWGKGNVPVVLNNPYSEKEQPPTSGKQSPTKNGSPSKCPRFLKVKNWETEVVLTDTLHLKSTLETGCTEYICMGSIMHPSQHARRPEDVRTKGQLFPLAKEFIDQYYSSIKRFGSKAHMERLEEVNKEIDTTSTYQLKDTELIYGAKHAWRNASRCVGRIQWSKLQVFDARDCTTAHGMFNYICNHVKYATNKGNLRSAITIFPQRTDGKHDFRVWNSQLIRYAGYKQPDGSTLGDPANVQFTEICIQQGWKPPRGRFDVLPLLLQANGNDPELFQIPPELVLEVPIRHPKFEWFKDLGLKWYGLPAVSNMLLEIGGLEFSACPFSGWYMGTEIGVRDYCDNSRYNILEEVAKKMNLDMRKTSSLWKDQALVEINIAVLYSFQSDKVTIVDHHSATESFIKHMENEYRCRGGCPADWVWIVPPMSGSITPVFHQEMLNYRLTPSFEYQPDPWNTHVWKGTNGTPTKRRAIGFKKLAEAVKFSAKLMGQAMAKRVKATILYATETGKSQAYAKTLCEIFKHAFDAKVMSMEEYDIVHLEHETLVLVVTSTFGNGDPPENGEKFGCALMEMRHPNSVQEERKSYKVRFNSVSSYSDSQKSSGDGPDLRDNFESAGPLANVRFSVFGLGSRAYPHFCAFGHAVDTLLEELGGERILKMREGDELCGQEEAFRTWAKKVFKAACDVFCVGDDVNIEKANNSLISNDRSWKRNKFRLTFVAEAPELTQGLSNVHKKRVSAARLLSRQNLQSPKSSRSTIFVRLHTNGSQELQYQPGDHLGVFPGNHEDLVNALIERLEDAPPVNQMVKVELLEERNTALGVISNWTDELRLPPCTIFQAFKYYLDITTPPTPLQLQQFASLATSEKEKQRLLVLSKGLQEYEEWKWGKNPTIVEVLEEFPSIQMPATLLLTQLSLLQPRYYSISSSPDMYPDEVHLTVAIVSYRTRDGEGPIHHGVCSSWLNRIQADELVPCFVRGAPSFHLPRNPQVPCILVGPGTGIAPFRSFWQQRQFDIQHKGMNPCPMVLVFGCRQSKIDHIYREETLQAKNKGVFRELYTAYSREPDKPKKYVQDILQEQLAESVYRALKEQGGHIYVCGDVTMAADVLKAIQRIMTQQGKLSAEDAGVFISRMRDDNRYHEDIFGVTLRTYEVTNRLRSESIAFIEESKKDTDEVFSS

Sequence of Nitric oxide synthase 1 (Rattus norvegicus, UniProt P29476) (P29476 whole entry): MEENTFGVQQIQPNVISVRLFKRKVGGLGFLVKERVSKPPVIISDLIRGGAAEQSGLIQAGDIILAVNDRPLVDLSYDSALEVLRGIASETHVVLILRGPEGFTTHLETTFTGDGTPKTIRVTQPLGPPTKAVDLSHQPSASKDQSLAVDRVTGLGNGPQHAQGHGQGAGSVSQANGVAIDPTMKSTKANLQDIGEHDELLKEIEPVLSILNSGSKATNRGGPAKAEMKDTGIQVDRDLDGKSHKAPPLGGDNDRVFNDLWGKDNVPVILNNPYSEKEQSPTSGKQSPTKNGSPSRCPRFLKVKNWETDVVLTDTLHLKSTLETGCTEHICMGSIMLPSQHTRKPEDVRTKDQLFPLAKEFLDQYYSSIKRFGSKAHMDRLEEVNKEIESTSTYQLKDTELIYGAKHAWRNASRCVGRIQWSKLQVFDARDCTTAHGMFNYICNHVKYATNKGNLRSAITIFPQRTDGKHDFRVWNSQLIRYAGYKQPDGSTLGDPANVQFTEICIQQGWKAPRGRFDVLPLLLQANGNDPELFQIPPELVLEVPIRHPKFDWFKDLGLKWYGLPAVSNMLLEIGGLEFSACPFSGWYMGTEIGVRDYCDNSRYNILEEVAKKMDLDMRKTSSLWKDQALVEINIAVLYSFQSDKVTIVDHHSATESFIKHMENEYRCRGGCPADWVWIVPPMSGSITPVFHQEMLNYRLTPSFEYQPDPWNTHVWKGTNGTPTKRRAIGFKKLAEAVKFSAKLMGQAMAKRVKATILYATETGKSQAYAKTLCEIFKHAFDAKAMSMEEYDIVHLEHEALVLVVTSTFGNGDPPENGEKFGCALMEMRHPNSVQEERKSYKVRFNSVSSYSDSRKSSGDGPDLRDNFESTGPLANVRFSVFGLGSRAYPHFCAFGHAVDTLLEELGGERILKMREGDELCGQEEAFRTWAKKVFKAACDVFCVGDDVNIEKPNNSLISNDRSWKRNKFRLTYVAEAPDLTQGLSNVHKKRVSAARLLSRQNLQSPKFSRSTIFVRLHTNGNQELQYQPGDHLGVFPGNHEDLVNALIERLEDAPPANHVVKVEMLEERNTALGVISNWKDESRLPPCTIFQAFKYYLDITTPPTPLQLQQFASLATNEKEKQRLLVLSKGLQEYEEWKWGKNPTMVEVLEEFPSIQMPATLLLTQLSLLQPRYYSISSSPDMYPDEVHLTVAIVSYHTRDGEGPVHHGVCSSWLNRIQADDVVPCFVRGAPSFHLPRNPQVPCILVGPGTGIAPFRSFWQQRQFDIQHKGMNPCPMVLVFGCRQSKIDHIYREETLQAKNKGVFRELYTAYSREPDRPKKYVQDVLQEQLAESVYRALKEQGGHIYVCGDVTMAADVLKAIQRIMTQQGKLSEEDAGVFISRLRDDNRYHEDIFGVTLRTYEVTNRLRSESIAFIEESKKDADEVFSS

Compound	Ki (Nitric oxide synthase 1 [1])	Ki [2]	Ratio Ki [3]	Ki (Nitric oxide synthase 3)	Ratio Ki [4]	Ki (Nitric oxide synthase 1 [5])
CNCc1ccc(OCc2ccc3ccc(N)nc3c2)cc1	0.332 µM	48.7 µM	–	–	–	–
Nc1ccc2ccc(COc3cccnc3)cc2n1	0.712 µM	–	–	–	–	–
CNC(C)c1cccc(OCc2ccc3ccc(N)nc3c2)c1 (racemic)	0.36 µM	67.1 µM	–	–	–	–
CNCc1cncc(OCc2ccc3ccc(N)nc3c2)c1	0.043 µM	13.5 µM	77	3.31 µM	11.8	0.507 µM
CNCc1cccc(NCc2ccc3ccc(N)nc3c2)c1	0.569 µM	–	–	–	–	–
CN(C)CCc1cccc(OCc2ccc3ccc(N)nc3c2)c1	0.468 µM	150 µM	–	17.7 µM	–	–

More lines, now with the values ahead:

Ki (Nitric oxide synthase 1 [1])	Ki [2]	Ratio Ki [3]	Ki (Nitric oxide synthase 3)	Ratio Ki [4]	Ki (Nitric oxide synthase 1 [5])	Compound
0.652 µM	–	–	–	–	–	CN(C)CCCc1cccc(OCc2ccc3ccc(N)nc3c2)c1
> 5.75 µM	–	–	–	–	–	CN(C)c1cccc(OCc2ccc3ccc(N)nc3c2)c1
–	11.4 µM	–	–	–	–	CNCc1cc(OCc2ccc3ccc(N)nc3c2)ccc1F
–	178 µM	44	31 µM	–	–	CN(C)CCOc1cccc(OCc2ccc3ccc(N)nc3c2)c1
